Measured values from patent publication US10370387B2, “Tricyclic fused thiophene derivatives as JAK inhibitors” (Incyte Corporation, priority 2012, dated 2019).

The compounds below were run on human JAK1 (assay: In vitro JAK kinase assay (HTRF, phosphorylation of biotinylated peptide), JAK1). Details: ratio of JAK2 IC50 to JAK1 IC50, 1 mM ATP.
Assay type: biochemical
Experimental: Compounds herein were tested for inhibitory activity of JAK targets according to the following in vitro assay described in Park et al., Analytical Biochemistry 1999, 269, 94-104. The catalytic domains of human JAK1 (a.a. 837-1142), JAK2 (a.a. 828-1132) and JAK3 (a.a. 781-1124) were expressed using baculovirus in insect cells and purified. The catalytic activity of JAK1, JAK2 or JAK3 was assayed by measuring the phosphorylation of a biotinylated peptide. The phosphorylated peptide was detected by homogenous time resolved fluorescence (HTRF). IC50s of compounds were measured for each kinase in the 40 μL reactions that contain the enzyme, ATP and 500 nM peptide in 50 mM Tris (pH 7.8) buffer with 100 mM NaCl, 5 mM DTT, and 0.1 mg/mL (0.01%) BSA. For the 1 mM IC50 measurements, ATP concentration in the reactions was 1 mM. Reactions were carried out at room temperature for 1 hour and then stopped with 20 μL 45 mM EDTA, 300 nM SA-APC, 6 nM Eu-Py20 in assay buffer (Perkin Elmer, Boston, Mass.). Binding to the Europium labeled antibody took place for 40 minutes and HTRF signal was measured on a PHERA star plate reader (BMG, Cary, N.C.). The Example compounds were each tested in the Example A assay (see Table 1 for data for the compounds of the examples as tested by the assay of Example A at 1 mM ATP).

Row | JAK2/JAK1 | SMILES
1 | >10 | CCNC(=O)C[C@H]1CC[C@H](n2c([C@@H](C)O)nc3cnc4ccsc4c32)CC1 [Example 31, N-Ethyl-2-(trans-4-{2-[(1R)-1-hydroxyethyl]-1H-imidazo[4,5-d]thieno[3,2-b]pyridin-1-yl}cyclohexyl)acetamide]
2 | >10 | C[C@@H](O)c1nc2cnc3ccsc3c2n1C1CCCC(CCC#N)C1 (stereo partly drawn) [Example 32, 3-(3-{2-[(1R)-1-Hydroxyethyl]-1H-imidazo[4,5-d]thieno[3,2-b]pyridin-1-yl}cyclohexyl)propanenitrile]
3 | >10 | CC(C)c1nc2cnc3ccsc3c2n1[C@H]1CC[C@H](CC#N)OC1 [Example 42, [(2R,5S)-5-(2-Isopropyl-1H-imidazo[4,5-d]thieno[3,2-b]pyridin-1-yl)tetrahydro-2H-pyran-2-yl]acetonitrile]
4 | >7 | Cc1nc2cnc3ccsc3c2n1[C@H]1CC[C@H](CC#N)CC1 [Example 48, [trans-4-(2-Methyl-1H-imidazo[4,5-d]thieno[3,2-b]pyridin-1-yl)cyclohexyl]acetonitrile]
5 | >10 | C[C@@H](O)c1nc2cnc3ccsc3c2n1[C@H]1CC[C@@H](CC#N)C1.O=C(O)C(F)(F)F [Example 49, ((1R,3S)-3-{2-[(1R)-1-Hydroxyethyl]-1H-imidazo[4,5-d]thieno[3,2-b]pyridin-1-yl}cyclopentyl)acetonitrile trifluoroacetate]
6 | >10 | C[C@@H](O)c1nc2cnc3ccsc3c2n1[C@H]1CCCN(C(=O)CC#N)C1.O=C(O)C(F)(F)F [Example 51, 3-((3S)-3-{2-[(1R)-1-Hydroxyethyl]-1H-imidazo[4,5-d]thieno[3,2-b]pyridin-1-yl}piperidin-1-yl)-3-oxopropanenitrile trifluoroacetate]
7 | >10 | C[C@@H](O)c1nc2cnc3ccsc3c2n1[C@H]1CCCN(C(=O)CCC(F)(F)F)C1 [Example 52, (1R)-1-{1-[(3S)-1-(4,4,4-Trifluorobutanoyl)piperidin-3-yl]-1H-imidazo[4,5-d]thieno[3,2-b]pyridin-2-yl}ethanol]
8 | >10 | C[C@@H](O)c1nc2cnc3ccsc3c2n1C1CCN(CC#N)CC1.O=C(O)C(F)(F)F [Example 61, (4-{2-[(1R)-1-Hydroxyethyl]-1H-imidazo[4,5-d]thieno[3,2-b]pyridin-1-yl}piperidin-1-yl)acetonitrile trifluoroacetate]
9 | >6 | C[C@@H](O)c1nc2cnc3ccsc3c2n1[C@H]1CCN(C(=O)CC#N)C1 [Example 63, 3-((3S)-3-{2-[(1R)-1-Hydroxyethyl]-1H-imidazo[4,5-d]thieno[3,2-b]pyridin-1-yl}pyrrolidin-1-yl)-3-oxopropanenitrile]
10 | >10 | C[C@@H](O)c1nc2cnc3ccsc3c2n1[C@H]1CCN(CCCC(F)(F)F)C1 [Example 64, (1R)-1-{1-[(3S)-1-(4,4,4-Trifluorobutyl)pyrrolidin-3-yl]-1H-imidazo[4,5-d]thieno[3,2-b]pyridin-2-yl}ethanol]
11 | >10 | C[C@@H](O)c1nc2cnc3ccsc3c2n1[C@H]1CC[C@H](CC#N)[C@H](N)C1 [Example 67, ((1R,2R,4S)-2-Amino-4-{2-[(1R)-1-hydroxyethyl]-1H-imidazo[4,5-d]thieno[3,2-b]pyridin-1-yl}cyclohexyl)acetonitrile]
12 | >10 | CC(N)c1nc2cnc3ccsc3c2n1[C@H]1CC[C@H](CC#N)OC1.O=C(O)C(F)(F)F (stereo partly drawn) [Example 68, {(2R,5S)-5-[2-(1-Aminoethyl)-1H-imidazo[4,5-d]thieno[3,2-b]pyridin-1-yl]tetrahydro-2H-pyran-2-yl}acetonitrile trifluoroacetate]

More lines, now with the values behind:

Row | SMILES | JAK2/JAK1
13 | CN1CC(c2nc3cnc4ccsc4c3n2[C@H]2CC[C@H](CC#N)CC2)C1 [Example 29, {trans-4-[2-(1-Methylazetidin-3-yl)-1H-imidazo[4,5-d]thieno[3,2-b]pyridin-1-yl]cyclohexyl}acetonitrile] | >9
14 | Cc1nc2cnc3ccsc3n2c1-c1ccc(CC#N)cc1 [Example 33, [4-(7-Methylimidazo[1,2-a]thieno[3,2-e]pyrazin-8-yl)phenyl]acetonitrile] | >7
15 | Cc1nc2cnc3ccsc3c2n1[C@H]1CC[C@H](CC#N)OC1 [Example 38, [(2R,5S)-5-(2-Methyl-1H-imidazo[4,5-d]thieno[3,2-b]pyridin-1-yl)tetrahydro-2H-pyran-2-yl]acetonitrile] | >10
16 | CCc1nc2cnc3ccsc3c2n1[C@H]1CC[C@H](CC#N)OC1 [Example 39, [(2R,5S)-5-(2-Ethyl-1H-imidazo[4,5-d]thieno[3,2-b]pyridin-1-yl)tetrahydro-2H-pyran-2-yl]acetonitrile] | >10
17 | N#CC[C@H]1CC[C@H](n2c(C3CC3)nc3cnc4ccsc4c32)CO1 [Example 43, [(2R,5S)-5-(2-Cyclopropyl-1H-imidazo[4,5-d]thieno[3,2-b]pyridin-1-yl)tetrahydro-2H-pyran-2-yl]acetonitrile] | >10
18 | C[C@@H](O)c1nc2cnc3ccsc3c2n1[C@@H]1CC[C@@H](CC#N)OC1 [Example 44, ((2S,5R)-5-{2-[(1R)-1-Hydroxyethyl]-1H-imidazo[4,5-d]thieno[3,2-b]pyridin-1-yl}tetrahydro-2H-pyran-2-yl)acetonitrile] | >10
19 | C[C@H](O)c1nc2cnc3ccsc3c2n1[C@H]1CC[C@H](CC#N)OC1 [Example 45, ((2R,5S)-5-{2-[(1S)-1-Hydroxyethyl]-1H-imidazo[4,5-d]thieno[3,2-b]pyridin-1-yl}tetrahydro-2H-pyran-2-yl)acetonitrile] | >10
20 | CCc1nc2cnc3ccsc3c2n1[C@H]1CC[C@H](CC#N)CC1 [Example 47, [trans-4-(2-Ethyl-1H-imidazo[4,5-d]thieno[3,2-b]pyridin-1-yl)cyclohexyl]acetonitrile] | >10
21 | CCOC(=O)N1CCC[C@H](n2c([C@@H](C)O)nc3cnc4ccsc4c32)C1 [Example 50, Ethyl (3S)-3-{2-[(1R)-1-hydroxyethyl]-1H-imidazo[4,5-d]thieno[3,2-b]pyridin-1-yl}piperidine-1-carboxylate] | >10
22 | C[C@@H](O)c1nc2cnc3ccsc3c2n1[C@H]1CCCN(C(=O)CCc2cn[nH]c2)C1 [Example 53, (1R)-1-(1-{(3S)-1-[3-(1H-Pyrazol-4-yl)propanoyl]piperidin-3-yl}-1H-imidazo[4,5-d]thieno[3,2-b]pyridin-2-yl)ethanol] | >10
23 | C[C@@H](O)c1nc2cnc3ccsc3c2n1[C@H]1CCCN(C(=O)CCc2cccnc2)C1 [Example 54, (1R)-1-{1-[(3S)-1-(3-Pyridin-3-ylpropanoyl)piperidin-3-yl]-1H-imidazo[4,5-d]thieno[3,2-b]pyridin-2-yl}ethanol] | >10
24 | CC(CC(=O)N1CCC[C@H](n2c([C@@H](C)O)nc3cnc4ccsc4c32)C1)c1ccccc1 (stereo partly drawn) [Example 55, (1R)-1-{1-[(3S)-1-(3-Phenylbutanoyl)piperidin-3-yl]-1H-imidazo[4,5-d]thieno[3,2-b]pyridin-2-yl}ethanol] | >10
25 | C[C@@H](O)c1nc2cnc3ccsc3c2n1[C@H]1CCCN(CCC#N)C1 [Example 56, 3-((3S)-3-{2-[(1R)-1-Hydroxyethyl]-1H-imidazo[4,5-d]thieno[3,2-b]pyridin-1-yl}piperidin-1-yl)propanenitrile] | >10
26 | C[C@@H](O)c1nc2cnc3ccsc3c2n1[C@H]1CCCN(C(=O)CCc2ccccc2)C1 [Example 57] | >10
27 | C[C@@H](O)c1nc2cnc3ccsc3c2n1[C@H]1CCCN(C(=O)CCC#N)C1 [Example 58, 4-((3S)-3-{2-[(1R)-1-Hydroxyethyl]-1H-imidazo[4,5-d]thieno[3,2-b]pyridin-1-yl}piperidin-1-yl)-4-oxobutanenitrile] | >10
28 | C[C@@H](O)c1nc2cnc3ccsc3c2n1[C@H]1CCCN(C(=O)CCCC#N)C1 [Example 59, 5-((3S)-3-{2-[(1R)-1-Hydroxyethyl]-1H-imidazo[4,5-d]thieno[3,2-b]pyridin-1-yl}piperidin-1-yl)-5-oxopentanenitrile] | >10
29 | C[C@@H](O)c1nc2cnc3ccsc3c2n1C1CCN(CCCC(F)(F)F)CC1 [Example 60, (1R)-1-{1-[1-(4,4,4-Trifluorobutyl)piperidin-4-yl]-1H-imidazo[4,5-d]thieno[3,2-b]pyridin-2-yl}ethanol] | >10
30 | C[C@@H](O)c1nc2cnc3ccsc3c2n1[C@H]1CCN(CCC#N)C1 [Example 62, 3-((3S)-3-{2-[(1R)-1-Hydroxyethyl]-1H-imidazo[4,5-d]thieno[3,2-b]pyridin-1-yl}pyrrolidin-1-yl)propanenitrile] | >10
31 | C[C@@H](O)c1nc2cnc3ccsc3c2n1[C@H]1CCN(CCCC#N)C1 [Example 65, 4-((3S)-3-{2-[(1R)-1-Hydroxyethyl]-1H-imidazo[4,5-d]thieno[3,2-b]pyridin-1-yl}pyrrolidin-1-yl)butanenitrile] | >10
32 | C[C@@H](O)c1nc2cnc3ccsc3c2n1[C@H]1CCN(CCCCC#N)C1 [Example 66, 5-((3S)-3-{2-[(1R)-1-Hydroxyethyl]-1H-imidazo[4,5-d]thieno[3,2-b]pyridin-1-yl}pyrrolidin-1-yl)pentanenitrile] | >10
